Test results from patent EP4768499A1, “MACROCYCLIC PEPTIDE COMPOUND HAVING CELL MEMBRANE PERMEABILITY AND METABOLIC STABILITY, AND LIBRARY CONTAINING SAME” (Chugai Seiyaku Kabushiki Kaisha, priority 2023, dated 2025).
Starred links: 1 amine or outer side, 2 acyl side, 3 side chain; linkers in the order of their positions; H or OH if unused. Positions of bridges follow the written chain, without caps; N, C: chain ends. Non-standard residues stand in square brackets, D forms with d. Residues, ends and D or L forms follow the SMILES beside them. *: point of attachment. NMeF = CN[C@@H](Cc1ccccc1)C(=O)O; NMeGABA = CN(CCCC(=O)[*:2])[*:1]; NMeI = CC[C@H](C)[C@H](NC)C(=O)O; NMeT = CN[C@H](C(=O)O)[C@@H](C)O; hPhe = N[C@@H](CCc1ccccc1)C(=O)O; NMeβAla = CN(CCC(=O)[*:2])[*:1]; NMeL = CN[C@@H](CC(C)C)C(=O)O; dNMeV = CN[C@@H](C(=O)O)C(C)C; NMeV = CN[C@H](C(=O)O)C(C)C; NMeAbu = CC[C@H](NC)C(=O)O; NMeA = CN[C@@H](C)C(=O)O; Piperidide = C1CCN(*)CC1; Abu = CC[C@H](N)C(=O)O; NBuGly = CCCCNCC(=O)O; βAla = NCCC(=O)O; Sar = CNCC(=O)O; tBu = CC(C)(C)*

Experiments:
[1] = Metabolic stability test: liver microsomal stability assay; format: in vitro ADME, mouse; conditions: mouse liver microsomes 0.5 mg protein/mL, compound 1 µM; for microsomal CLint at 1 µM: male, pH 7.4, presence of NADPH, read-out: Mouse Hepatic Microsome CLh,int NADPH(+); for Mouse Hepatic Microsome CLh,int NADPH(-): absence of NADPH
[2] = Membrane permeability test using Caco-2 cells with preincubation; format: in vitro ADME; conditions: Caco-2; preincubation 20 to 24 hours; Apical FaSSIF/HBSS pH 6.0, Basal HBSS 4% BSA pH 7.4; 180 minutes; read-out: Caco2 Papp
[3] = system: Caco-2 cells; assay: as above; format: in vitro ADME; conditions: Caco-2 cells, preincubation 20 to 24 hours; apical FaSSIF/HBSS 1% DMSO pH 6.0, basal HBSS 4% BSA pH 7.4; basal sample at 180 minutes

Structure (SMILES) | microsomal CLint at 1 µM [1] [µL/min/mg] | Mouse Hepatic Microsome CLh,int NADPH(-) [1] [µL/min/mg Protein] | Papp A→B [2] [×10⁻⁶ cm/s] | Caco2 Papp (10^-6 cm/sec) [3]
CC(C)C[C@@H]1NC(=O)[C@H](CC(C)C)N(C)C(=O)[C@H](C(C)C)N(C)C(=O)[C@H](CCc2ccccc2)NC(=O)[C@H]([C@@H](C)O)N(C)C(=O)[C@@H](C(C)C)NC(=O)C[C@@H](C(=O)N2CCCCC2)NC(=O)[C@H](C(C)C)N(C)C(=O)[C@H](CC(C)C)NC(=O)[C@H](Cc2ccccc2)N(C)C(=O)[C@@H]2CCCN2C(=O)[C@H](CC(C)C)N(C)C(=O)CN(C)C1=O [pd107] ([dV][NMeT][hPhe][NMeV][NMeL]L[Sar][NMeL]P[NMeF]L[NMeV]D-Piperidide; lactam N-13) | 36.3 | 31.5 | 0.81 | 0.81 10^-6 cm/sec
CC(C)C[C@@H]1NC(=O)[C@H](C(C)C)N(C)C(=O)[C@H](Cc2ccccc2)N(C)C(=O)[C@H](CC(C)C)NC(=O)[C@H](CC(C)C)N(C)C(=O)[C@H](C)N(C)C(=O)[C@H]([C@@H](C)O)NC(=O)[C@H](CC(C)C)N(C)C(=O)[C@H](C(C)C)N(C)C(=O)[C@H](CC(C)C)NC(=O)[C@H](Cc2ccccc2)N(C)C(=O)[C@@H](C(C)C)N(C)C(=O)C[C@@H](C(=O)N2CCCCC2)NC1=O [pd108] ([dNMeV][NMeF]L[NMeV][NMeL]T[NMeA][NMeL]L[NMeF][NMeV]LD-Piperidide; lactam N-13) | 39.9 | 35.5 | 0.03 | 0.03 10^-6 cm/sec
CC[C@H](C)[C@@H]1NC(=O)[C@H](C)N(C)C(=O)[C@H]([C@@H](C)O)NC(=O)[C@H](Cc2ccccc2)N(C)C(=O)[C@H](COC(C)(C)C)NC(=O)[C@H](CC(C)C)N(C)C(=O)CN(C)C(=O)[C@H](Cc2ccccc2)N(C)C(=O)[C@H]([C@@H](C)CC)NC(=O)[C@H](CC(C)C)N(C)C(=O)CCN(C)C(=O)C[C@@H](C(=O)N2CCCCC2)NC(=O)[C@H](CC(C)C)N(C)C1=O [pd110] ([NMeβAla][NMeL]I[NMeF][Sar][NMeL]S(tBu)[NMeF]T[NMeA]I[NMeL]D-Piperidide; lactam N-13) | 38.5 | 30.5 | 0.43 | 0.43 10^-6 cm/sec
CCCCN1CC(=O)N[C@@H](CC(C)C)C(=O)N(C)[C@@H]([C@@H](C)CC)C(=O)N(C)[C@@H]([C@@H](C)O)C(=O)N(C)[C@@H](Cc2ccccc2)C(=O)N[C@@H]([C@@H](C)CC)C(=O)N(C)[C@@H](CC(C)C)C(=O)N[C@H](C(=O)N2CCCCC2)CC(=O)N(C)[C@@H](C)C(=O)N[C@@H](CC(C)C)C(=O)N(C)[C@@H](CC(C)C)C(=O)N(C)[C@@H](Cc2ccccc2)C(=O)N[C@@H](CC)C1=O [pd111] ([NMeA]L[NMeL][NMeF][Abu][NBuGly]L[NMeI][NMeT][NMeF]I[NMeL]D-Piperidide; lactam N-13) | 18.7 | 28.4 | 0.04 | 0.04 10^-6 cm/sec
CC[C@H](C)[C@H]1C(=O)N[C@@H]([C@@H](C)O)C(=O)N(C)CC(=O)N(C)[C@@H](CC(C)C)C(=O)N[C@@H](CC(C)C)C(=O)N[C@H](C(=O)N2CCCCC2)CC(=O)N(C)[C@@H](C)C(=O)N[C@@H](CC(C)C)C(=O)N(C)[C@@H](CC(C)C)C(=O)N(C)CCC(=O)N(C)[C@@H](Cc2ccccc2)C(=O)NCCC(=O)N(C)[C@@H](Cc2ccccc2)C(=O)N1C [pd113] ([NMeA]L[NMeL][NMeβAla][NMeF][βAla][NMeF][NMeI]T[Sar][NMeL]LD-Piperidide; lactam N-13) | 24.4 | 16.4 | 0.2 | 0.20 10^-6 cm/sec
CC[C@H](C)[C@@H]1NC(=O)[C@H](CC(C)C)N(C)C(=O)CN(C)C(=O)C[C@@H](C(=O)N2CCCCC2)NC(=O)[C@H](C)N(C)C(=O)CNC(=O)[C@H](C(C)C)N(C)C(=O)[C@H](C)N(C)C(=O)[C@H](Cc2ccccc2)N(C)C(=O)[C@H](CC(C)C)NC(=O)[C@H](Cc2ccccc2)N(C)C(=O)[C@H]([C@@H](C)O)NC(=O)[C@H](CC(C)C)N(C)C1=O [pd115] ([Sar][NMeL]I[NMeL]T[NMeF]L[NMeF][NMeA][NMeV]G[NMeA]D-Piperidide; lactam N-13) | 24.9 | 12.3 | 0.09 | 0.09 10^-6 cm/sec
CC(C)C[C@@H]1NC(=O)[C@H]([C@@H](C)O)N(C)C(=O)[C@@H](C(C)C)NC(=O)C[C@@H](C(=O)N2CCCCC2)NC(=O)[C@H](C(C)C)N(C)C(=O)[C@H](C)N(C)C(=O)[C@H](Cc2ccccc2)N(C)C(=O)[C@@H]2CCCN2C(=O)[C@H](CC(C)C)N(C)C(=O)CN(C)C(=O)[C@H](CCc2ccccc2)NC(=O)[C@H](CC(C)C)N(C)C(=O)[C@H](C(C)C)N(C)C1=O [pd116] ([dV][NMeT]L[NMeV][NMeL][hPhe][Sar][NMeL]P[NMeF][NMeA][NMeV]D-Piperidide; lactam N-13) | 19.2 | 14.9 | 0.19 | 0.19 10^-6 cm/sec
CC[C@H]1C(=O)N(C)[C@@H](CC(C)C)C(=O)N[C@@H]([C@@H](C)O)C(=O)N(C)[C@@H](C)C(=O)N(C)[C@@H](CC(C)C)C(=O)N[C@H](C(=O)N2CCCCC2)CC(=O)N(C)CCCC(=O)N[C@@H](CC(C)C)C(=O)N(C)[C@@H](CC(C)C)C(=O)N(C)[C@@H](C)C(=O)N(C)[C@@H](Cc2ccccc2)C(=O)N[C@@H](C)C(=O)N(C)[C@@H](Cc2ccccc2)C(=O)N1C [pd117] ([NMeGABA]L[NMeL][NMeA][NMeF]A[NMeF][NMeAbu][NMeL]T[NMeA][NMeL]D-Piperidide; lactam N-13) | 25.9 | 14.4 | 0.17 | 0.17 10^-6 cm/sec

Continued, values first:

microsomal CLint at 1 µM [1] [µL/min/mg] | Mouse Hepatic Microsome CLh,int NADPH(-) [1] [µL/min/mg Protein] | Papp A→B [2] [×10⁻⁶ cm/s] | Caco2 Papp (10^-6 cm/sec) [3] | Structure (SMILES)
40.6 | 30.3 | 0.83 | 0.83 10^-6 cm/sec | CC[C@@H]1NC(=O)[C@H](Cc2ccccc2)N(C)C(=O)[C@H](C)N(C)C(=O)[C@H](CC(C)C)N(C)C(=O)[C@H](CC(C)C)NC(=O)CCCN(C)C(=O)C[C@@H](C(=O)N2CCCCC2)NC(=O)[C@H](CC(C)C)N(C)C(=O)[C@H](C)N(C)C(=O)[C@H]([C@@H](C)O)NC(=O)[C@H](CC(C)C)N(C)C(=O)[C@H](COC(C)(C)C)NC(=O)[C@H](Cc2ccccc2)N(C)C1=O [pd109] ([NMeGABA]L[NMeL][NMeA][NMeF][Abu][NMeF]S(tBu)[NMeL]T[NMeA][NMeL]D-Piperidide; lactam N-13)
30.5 | 21.2 | 0.35 | 0.35 10^-6 cm/sec | CC[C@@H]1NC(=O)[C@H](CC(C)C)N(C)C(=O)[C@H](Cc2ccccc2)N(C)C(=O)[C@H](CC(C)C)N(C)C(=O)[C@H](C)NC(=O)C[C@@H](C(=O)N2CCCCC2)NC(=O)[C@H](C(C)C)N(C)C(=O)[C@@H]2CCCN2C(=O)CCN(C)C(=O)[C@H](CC(C)C)NC(=O)[C@H]([C@@H](C)CC)N(C)C(=O)[C@H]([C@@H](C)O)NC(=O)[C@H](Cc2ccccc2)N(C)C1=O [pd112] (A[NMeL][NMeF][NMeL][Abu][NMeF]T[NMeI]L[NMeβAla]P[NMeV]D-Piperidide; lactam N-13)
35.6 | 29.2 | 0.16 | 0.16 10^-6 cm/sec | CC[C@H](C)[C@@H]1NC(=O)[C@H](Cc2ccccc2)N(C)C(=O)CN(C)C(=O)C[C@@H](C(=O)N2CCCCC2)NC(=O)[C@H]([C@@H](C)CC)N(C)C(=O)[C@H](COC(C)(C)C)NC(=O)[C@@H]2CCCN2C(=O)[C@H](CCc2ccccc2)NC(=O)[C@H](CC)N(C)C(=O)[C@H](CC(C)C)NC(=O)[C@H](CC(C)C)N(C)C(=O)[C@H]([C@@H](C)O)N(C)C(=O)[C@H](CC(C)C)N(C)C1=O [pd114] ([Sar][NMeF]I[NMeL][NMeT][NMeL]L[NMeAbu][hPhe]PS(tBu)[NMeI]D-Piperidide; lactam N-13)
31.2 | 19.8 | 0.46 | 0.46 10^-6 cm/sec | CC[C@H](C)[C@H]1C(=O)N[C@@H](Cc2ccccc2)C(=O)N2CCC[C@H]2C(=O)N(C)[C@@H](CC(C)C)C(=O)N[C@@H](COC(C)(C)C)C(=O)N(C)[C@@H](Cc2ccccc2)C(=O)N[C@@H]([C@@H](C)O)C(=O)N(C)[C@@H](CC)C(=O)N2CCC[C@H]2C(=O)N(C)[C@@H](CC(C)C)C(=O)N[C@H](C(=O)N2CCCCC2)CC(=O)N(C)CCCC(=O)N(C)[C@@H](CC(C)C)C(=O)N1C [pd118] ([NMeGABA][NMeL][NMeI]FP[NMeL]S(tBu)[NMeF]T[NMeAbu]P[NMeL]D-Piperidide; lactam N-13)
41.2 | 34.2 | 0.5 | 0.50 10^-6 cm/sec | CC[C@H](C)[C@H]1C(=O)N[C@@H](CC(C)C)C(=O)N(C)[C@@H](CC(C)C)C(=O)N2CCC[C@H]2C(=O)N(C)[C@@H](C(C)C)C(=O)N[C@H](C(=O)N2CCCCC2)CC(=O)N(C)[C@@H](C)C(=O)N(C)[C@@H](CC(C)C)C(=O)N[C@@H](COC(C)(C)C)C(=O)N(C)[C@@H](Cc2ccccc2)C(=O)N(C)[C@@H](CC)C(=O)N(C)[C@@H](Cc2ccccc2)C(=O)N[C@@H]([C@@H](C)O)C(=O)N1C [pd119] ([NMeA][NMeL]S(tBu)[NMeF][NMeAbu][NMeF]T[NMeI]L[NMeL]P[NMeV]D-Piperidide; lactam N-13)
